This note sets out measurements from patent US9840515B2, “Protein kinase D inhibitors” (University of Pittsburgh—Of the Commonwealth System of …, priority 2010, dated 2017).

Structures are written as SMILES.

The first series addresses T1, PKD1 (Homo sapiens, UniProt Q15139).
T1 sequence (Q15139 1-912): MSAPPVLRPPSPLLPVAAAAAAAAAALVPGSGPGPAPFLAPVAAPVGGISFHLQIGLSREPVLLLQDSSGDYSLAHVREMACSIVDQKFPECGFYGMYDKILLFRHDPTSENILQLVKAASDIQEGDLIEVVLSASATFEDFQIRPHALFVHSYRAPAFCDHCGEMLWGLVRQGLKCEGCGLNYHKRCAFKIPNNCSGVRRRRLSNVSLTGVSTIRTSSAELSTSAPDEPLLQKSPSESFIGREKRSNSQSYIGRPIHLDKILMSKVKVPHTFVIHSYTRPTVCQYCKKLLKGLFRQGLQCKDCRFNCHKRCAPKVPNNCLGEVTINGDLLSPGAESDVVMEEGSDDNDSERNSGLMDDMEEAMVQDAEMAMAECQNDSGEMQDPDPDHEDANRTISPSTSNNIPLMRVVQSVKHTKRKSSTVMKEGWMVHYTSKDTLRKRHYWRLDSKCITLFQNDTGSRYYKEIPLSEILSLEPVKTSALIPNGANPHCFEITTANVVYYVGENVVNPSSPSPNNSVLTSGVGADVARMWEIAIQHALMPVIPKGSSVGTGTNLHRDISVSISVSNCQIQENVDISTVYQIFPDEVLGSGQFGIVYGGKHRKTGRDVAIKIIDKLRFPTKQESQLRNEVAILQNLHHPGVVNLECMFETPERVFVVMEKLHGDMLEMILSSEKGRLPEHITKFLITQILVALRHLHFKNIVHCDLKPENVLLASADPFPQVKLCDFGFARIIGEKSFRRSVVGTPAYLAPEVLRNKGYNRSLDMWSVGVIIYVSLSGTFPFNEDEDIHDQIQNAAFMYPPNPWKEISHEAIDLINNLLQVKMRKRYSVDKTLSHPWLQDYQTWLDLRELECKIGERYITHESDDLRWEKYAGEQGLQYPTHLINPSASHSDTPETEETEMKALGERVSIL
As to the kind of experiment: IMAP-FP PKD1 assay.
Details: not given
In kind it is biochemical. An excerpt: See Sharlow, E. R., et. al., J Biol Chem, 283: 33516-33526, (2008). The assay established the concentration of inhibitor that is required to reduce PKD1 activity by 50% (IC50), as shown in Table 2 above.
One may read the IC50 as the point on the concentration scale where inhibition reaches its midpoint. `Nc1ccc2[nH]c3c(c2c1)CCCNC3=O` [kb-NB142-01] returned an IC50 of 47100 ± 2500 nM.
On the same count and under the same terms, for `C/C=C/c1c(O)ccc2oc3c(c12)CCCNC3=O` [kb-NB96-30, 6-[(E)-2-(Prop-1-enyl)]-7-hydroxy-2,3,4,5-tetrahydro-[1]benzoxolo[2,3-c]azepin-1-one] the value was 1000 ± 100 nM; for `O=C1NCCC(=NNc2ccccc2)c2c1oc1ccc(O)cc21` [kb-NB142-05, 7-Hydroxy-5-[(phenylamino)azamethylene]-2H,3H,4H-azepino[5,6-d]benzo[b]furan-1-one], 21700 ± 520 nM; for `Nc1ccc2[nH]c3c(c2c1)CCNC3=O` [kb-NB142-08, 6-Amino-2,3,4,9-tetrahydro-1H-pyrido[3,4-b]indol-1-one], 74400 ± 2200 nM.
Same read-out and setting: then `C=CCc1c(O)ccc2oc3c(c12)CCCNC3=O` [kb-NB96-02, 6-Allyl-7-hydroxy-2,3,4,5-tetrahydro-[1]benzoxolo[2,3-c]azepin-1-one], with 2400 ± 300 nM.
Still for that read-out and setting: then `O=C1NCCCc2c1oc1ccc(O)c(F)c21` [kb-NB96-21, 6-Fluoro-7-hydroxy-2,3,4,5-tetrahydro-[1]benzoxolo[2,3-c]azepin-1-one], with 1300 ± 50 nM.
In turn, `O=C1NCCC(=O)c2c1oc1ccc(O)cc21` [kb-NB123-63, 7-Hydroxy-2H,3H,4H-azepino[5,6-d]benzo[b]furan-1,5-dione] gave an IC50 of 14900 ± 1200 nM.
Still for that read-out and setting: then `O=C1NCCC(O)c2c1oc1ccc(O)cc21` (stereo not drawn) [kb-NB123-89, 5,7-Dihydroxy-2H,3H,4H,5H-azepino[5,6-d]benzo[b]furan-1-one], with 24100 ± 710 nM.

Another series addresses T2, purified recombinant human PKD1 (Homo sapiens, UniProt Q15139).
T2 sequence (Q15139 1-912): T1 sequence (Q15139 1-912)
As to the kind of experiment: radiometric PKD kinase activity assay. Conditions: read-out: IC50 radiometric PKD1. It is filed as biochemical. Here is the method:
The radiometric PKD kinase assay was carried out by co-incubating 0.5 μCi γ-32P-ATP (PerkinElmer, Boston, Mass.), 20 μM ATP, 50 ng purified recombinant human PKD (PKD1, PKD2, PKD3) proteins, and 2.5 μg Syntide-2 (Sigma) in 50 μl kinase buffer that contains 50 mM Tris-HCl, pH 7.5, 4 mM MgCl2, 10 mM β-mercaptoethanol. The reaction was carried out under sub-saturation conditions, such that the initial rate was within linear kinetic range. The reaction mixture was incubated at 30° C. for 10 min, followed by spotting 25 μl of the mix onto a Whatman P81 filter paper (Whatman Inc, Clifton, N.J.). The filter papers were then washed three times in 0.5% phosphoric acid, air-dried, and counted using a Beckman LS6500 multi-purpose scintillation counter (Beckman, Fullerton, Calif.).
Regarding `Nc1ccc2[nH]c3c(c2c1)CCCNC3=O` [kb-NB142-01], the IC50 was determined as 9680 ± 1010 nM.
For `C/C=C/c1c(O)ccc2oc3c(c12)CCCNC3=O` [kb-NB96-30, 6-[(E)-2-(Prop-1-enyl)]-7-hydroxy-2,3,4,5-tetrahydro-[1]benzoxolo[2,3-c]azepin-1-one], the IC50 was 240 nM.
Turning to `O=C1NCCC(=NNc2ccccc2)c2c1oc1ccc(O)cc21` [kb-NB142-05, 7-Hydroxy-5-[(phenylamino)azamethylene]-2H,3H,4H-azepino[5,6-d]benzo[b]furan-1-one], the IC50 was found to be 1130 nM.
The same measure, in the same setting: then `Nc1ccc2[nH]c3c(c2c1)CCNC3=O` [kb-NB142-08, 6-Amino-2,3,4,9-tetrahydro-1H-pyrido[3,4-b]indol-1-one], with 15700 ± 190 nM; and `C=CCc1c(O)ccc2oc3c(c12)CCCNC3=O` [kb-NB96-02, 6-Allyl-7-hydroxy-2,3,4,5-tetrahydro-[1]benzoxolo[2,3-c]azepin-1-one], with 1580 nM; and `O=C1NCCCc2c1oc1ccc(O)c(F)c21` [kb-NB96-21, 6-Fluoro-7-hydroxy-2,3,4,5-tetrahydro-[1]benzoxolo[2,3-c]azepin-1-one], with 240 nM.
Turning to `O=C1NCCC(=O)c2c1oc1ccc(O)cc21` [kb-NB123-63, 7-Hydroxy-2H,3H,4H-azepino[5,6-d]benzo[b]furan-1,5-dione], the IC50 was found to be 850 ± 110 nM.
On the same count and under the same terms, then `O=C1NCCC(O)c2c1oc1ccc(O)cc21` (stereo not drawn) [kb-NB123-89, 5,7-Dihydroxy-2H,3H,4H,5H-azepino[5,6-d]benzo[b]furan-1-one], with 1230 ± 210 nM.

System in another series: not given
Assay: not given
Details: not given
By melting point is commonly meant the temperature, or range, at which the solid turns liquid. Compound `Nc1ccc2[nH]c3c(c2c1)CCCNC3=O` [kb-NB142-01] yielded a melting point of 202 to 207 °C.
`C/C=C/c1c(O)ccc2oc3c(c12)CCCNC3=O` [kb-NB96-30, 6-[(E)-2-(Prop-1-enyl)]-7-hydroxy-2,3,4,5-tetrahydro-[1]benzoxolo[2,3-c]azepin-1-one] showed a melting point of over 300 °C.
`O=C1NCCC(=NNc2ccccc2)c2c1oc1ccc(O)cc21` [kb-NB142-05, 7-Hydroxy-5-[(phenylamino)azamethylene]-2H,3H,4H-azepino[5,6-d]benzo[b]furan-1-one]: the melting point is 234 to 236 °C.
In the case of `Nc1ccc2[nH]c3c(c2c1)CCNC3=O` [kb-NB142-08, 6-Amino-2,3,4,9-tetrahydro-1H-pyrido[3,4-b]indol-1-one], the melting point is 280 to 282 °C.
On the same count and under the same terms, for `C=CCc1c(O)ccc2oc3c(c12)CCCNC3=O` [kb-NB96-02, 6-Allyl-7-hydroxy-2,3,4,5-tetrahydro-[1]benzoxolo[2,3-c]azepin-1-one] the value was 255 to 257 °C; for `O=C1NCCCc2c1oc1ccc(O)c(F)c21` [kb-NB96-21, 6-Fluoro-7-hydroxy-2,3,4,5-tetrahydro-[1]benzoxolo[2,3-c]azepin-1-one], over 300 °C.
The same measure, in the same setting: for `O=C1NCCC(=O)c2c1oc1ccc(O)cc21` [kb-NB123-63, 7-Hydroxy-2H,3H,4H-azepino[5,6-d]benzo[b]furan-1,5-dione] the value was over 300 °C.
Still for that read-out and setting: for `O=C1NCCC(O)c2c1oc1ccc(O)cc21` (stereo not drawn) [kb-NB123-89, 5,7-Dihydroxy-2H,3H,4H,5H-azepino[5,6-d]benzo[b]furan-1-one] the value was 280 to 282 °C.
